Data reported in the CheMixHub viscosity set.

Assay: xn = mol fraction of the nth substance listed

CC(C)OC(C)C + CC(C)O
viscosity [mPa·s], 100 kPa
Details	x1 = 0.0797	x1 = 0.1607	x1 = 0.2387	x1 = 0.3497	x1 = 0.4359	x1 = 0.5553	x1 = 0.6498	x1 = 0.7351	x1 = 0.848	x1 = 0.9369
293.15 K	1.78	1.32	1.02	0.755	0.635	0.52	0.458	0.418	0.38	0.35
298.15 K	1.55	1.18	0.92	0.68	0.572	0.48	0.43	0.395	0.36	0.332
303.15 K	1.39	1.05	0.84	0.63	0.53	0.45	0.404	0.375	0.344	0.318
308.15 K	1.21	0.94	0.75	0.56	0.48	0.417	0.379	0.356	0.328	0.305
313.15 K	1.05	0.83	0.67	0.51	0.44	0.383	0.356	0.334	0.311	0.29
318.15 K	0.93	0.74	0.6	0.465	0.4	0.354	0.331	0.313	0.293	0.276
323.15 K	0.82	0.647	0.522	0.41	0.361	0.327	0.309	0.295	0.276	0.26

CCCCCCCCC + CCCCCCCC
298.15 K, 101.33 kPa
Details	viscosity [mPa·s]
x2 = 0.1092	0.631
x2 = 0.2071	0.6264
x2 = 0.3038	0.6069
x2 = 0.4058	0.5951
x2 = 0.5051	0.5768
x2 = 0.6076	0.5586
x2 = 0.7044	0.5497
x2 = 0.8047	0.5318
x2 = 0.9025	0.5116

C1COCO1 + COCCO
298.15 K, 101 kPa
Details	viscosity [mPa·s]
x1 = 0.1024	1.345
x1 = 0.2043	1.171
x1 = 0.3057	1.032
x1 = 0.4065	0.9197
x1 = 0.5067	0.8293
x1 = 0.6064	0.7564
x1 = 0.7056	0.6979
x1 = 0.8043	0.6517
x1 = 0.9024	0.6155

O=S(Cl)Cl + c1ccccc1
298.15 K, 101 kPa
Details	viscosity [mPa·s]
x1 = 0.181	0.5962
x1 = 0.366	0.5999
x1 = 0.481	0.602
x1 = 0.686	0.6068
x1 = 0.877	0.6165
